Reference: article PMC5419589 (Bioorganic & medicinal chemistry, 2016)
Counter-ions that a name gives are not always drawn. Each block holds one compound with its values, some of them ahead of it.

Key:
[1] = tested on: T. brucei brucei strain BF427; test: T. brucei growth inhibition assay; assay type: cell-based, Trypanosoma brucei brucei; conditions: for fold enhancement of potency with respect to compound 1: vs 1, T. brucei EC50; for activity on T. brucei cells (in words): T. brucei EC50 assay; for fold reduction of potency compared to compound 2: vs 2, T. brucei EC50; for EC50: Trypanosoma brucei, 48 h, read-out: EC50, concentration required to inhibit growth by 50% of T. brucei brucei, strain BF427, 48H, AlamarBlue
[2] = tested on: T. brucei brucei (strain TREU667); test: Chronic; assay type: in vivo, mouse; conditions: for relapse with parasites in the blood / suppression of parasitemia during treatment phase: TREU667, 50 mg/kg twice a day oral day 21 to 34; for number of mice free of parasitemia/number of mice in the group: same dosing
[3] = day 35 post-infection, day 1 post-treatment
[4] = day 36 post-infection, day 2 post-treatment
[5] = day 37 post-infection, day 3 post-treatment
[6] = day 39 post-infection, day 5 post-treatment
[7] = day 38 post-infection, day 4 post-treatment
[8] = day 40 post-infection, day 6 post-treatment

Compound: Cl.NCCN(C(=O)c1ccc(Cl)cc1Cl)c1ccc(Cl)cc1 [Compound 2, N-(2-Aminoethyl)-2,4-dichloro-N-(4-chlorophenyl)benzamide]
fold enhancement of potency with respect to compound 1 [1]: 4 fold

Compound: Cl.NCCN(C(=O)c1ccc(Cl)cc1Cl)c1ccc(Br)cc1 [Compound 3, N-(2-Aminoethyl)-N-(4-bromophenyl)-2,4-dichlorobenzamide hydrochloride]
fold enhancement of potency with respect to compound 1 [1]: 4 fold

Compound: COc1ccc(N(CCN)C(=O)c2ccc(Cl)cc2Cl)cc1.Cl [Compound 8, N-(2-Aminoethyl)-2,4-dichloro-N-(4-methoxyphenyl)benzamide hydrochloride]
activity on T. brucei cells (in words) [1]: eliminated activity

Compound: Cl.NCCN(C(=O)c1ccc(Cl)cc1Cl)c1ccc([N+](=O)[O-])cc1 [Compound 9, N-(2-Aminoethyl)-2,4-dichloro-N-(4-nitrophenyl)benzamide hydrochloride]
activity on T. brucei cells (in words) [1]: eliminated activity

Compound: Cl.NCCN(C(=O)c1ccc(Cl)cc1Cl)c1ccc(N)cc1 [Compound 10, N-(2-Aminoethyl)-N-(4-aminophenyl)-2,4-dichlorobenzamide]
activity on T. brucei cells (in words) [1]: eliminated activity

Compound: Cl.NCCN(C(=O)c1ccc(Cl)cc1Cl)c1cccc(Cl)c1 [Compound 11, N-(2-Aminoethyl)-2,4-dichloro-N-(3-chlorophenyl)benzamide hydrochloride]
fold reduction of potency compared to compound 2 [1]: 10 fold

Compound: Cl.NCCN(C(=O)c1ccc(Cl)cc1Cl)c1ccc(Cl)cc1Cl [Compound 12, N-(2-Aminoethyl)-2,4-dichloro-N-(2,4-dichlorophenyl)benzamide]
fold enhancement of potency with respect to compound 1 [1]: more than 2 fold

Compound: Cl.NCCN(C(=O)c1ccc(Cl)cc1Cl)c1ccc(Oc2ccc(Cl)cc2)cc1 [Compound 16, N-(2-Aminoethyl)-2,4-dichloro-N-[4-(4-chlorophenoxy)phenyl] benzamide hydrochloride]
fold enhancement of potency with respect to compound 1 [1]: 7 fold

Compound: Cl.NCCN(C(=O)c1ccc(Cl)cc1Cl)c1ccc(Oc2cccc(Cl)c2)cc1 [Compound 17, N-(2-Aminoethyl)-2,4-dichloro-N-[4-(3-chlorophenoxy)phenyl] benzamide hydrochloride]
fold enhancement of potency with respect to compound 1 [1]: 4 fold

Compound: Cl.NCCN(C(=O)c1ccccc1Cl)c1ccc(Cl)cc1 [Compound 23, N-(2-Aminoethyl)-2-chloro-N-(4-chlorophenyl)benzamide hydrochloride]
fold more active than 4-chlorobenzoyl derivative 21 ([1]; vs 21): ~8 fold
fold more active than 3-chloro (22) ([1]; vs 22): 3 fold

Compound: Cc1ccccc1C(=O)N(CCN)c1ccc(Cl)cc1.Cl [Compound 24, N-(2-Aminoethyl)-N-(4-chlorophenyl)-2-methylbenzamide hydrochloride]
fold more active than 4-methyl derivative 25 ([1]; vs 25): 14 fold

Compound: COc1ccccc1C(=O)N(CCN)c1ccc(Cl)cc1.Cl [Compound 26, N-(2-Aminoethyl)-N-(4-chlorophenyl)-2-methoxybenzamide hydrochloride]
times less active compared to 23, 24 ([1]; vs 23, 24): at least 5 fold
times more potent than 4-methoxy (27) ([1]; vs 27): at least 4 fold

Compound: Cl.NCCN(C(=O)c1cc([N+](=O)[O-])ccc1Cl)c1ccc(Cl)cc1 [Compound 36, N-(2-Aminoethyl)-2-chloro-N-(4-chlorophenyl)-5-nitrobenzamide hydrochloride]
times less potent than 2-chloro analogue 23 ([1]; vs 23): 3 fold

Compound: Cl.NCCN(C(=O)c1ccc(F)cc1F)c1ccc(Cl)cc1 [Compound 40, N-(2-Aminoethyl)-N-(4-chlorophenyl)-2,4-difluorobenzamide hydrochloride]
fold more active than 2-floro (30) or 4-fluoro (28) derivatives ([1]; vs 30 or 28): at least 3 fold

Compound: Cl.NCCN(C(=O)c1c(F)c(F)c(F)c(F)c1F)c1ccc(Cl)cc1 [Compound 41, N-(2-Aminoethyl)-N-(4-chlorophenyl)-2,3,4,5,6-pentafluorobenzamide hydrochloride]
fold improvement in activity compared to 20 ([1]; vs 20): 26 fold

EC50 [1]: 180 nM
Compound: NCCN(C(=O)c1ccccc1C(F)(F)F)c1ccc(Cl)cc1 [Compound 42, N-(2-aminoethyl)-N-(4-chlorophenyl)-2-(trifluoromethyl) benzamide hydrochloride]

EC50 [1]: > 10000 nM
Compound: CCN(C(=O)c1ccc(Cl)cc1Cl)c1ccc(F)cc1 [Compound 45, 2,4-Dichloro-N-ethyl-N-(4-fluorophenyl)benzamide]
activity on T. brucei cells (in words) [1]: eliminated anti-T. brucei activity

Compound: CC(=O)NCCN(C(=O)c1ccc(Cl)cc1Cl)c1ccc(Cl)cc1 [Compound 46, N-{2-[N-(4-Chlorophenyl)-1-(2,4-dichlorophenyl)formamido]ethyl}acetamide]
activity on T. brucei cells (in words) [1]: eliminated anti-T. brucei activity

Compound: CN(C)CCN(C(=O)c1ccc(Cl)cc1Cl)c1ccc(Cl)cc1 [Compound 47, 2,4-Dichloro-N-(4-chlorophenyl)-N-[2-(dimethylamino)ethyl] benzamide]
activity on T. brucei cells (in words) [1]: eliminated anti-T. brucei activity

Compound: O=C(c1ccc(Cl)cc1Cl)N(CCN1CCOCC1)c1ccc(Cl)cc1 [Compound 48, 2,4-Dichloro-N-(4-chlorophenyl)-N-[2-(morpholin-4-yl)ethyl] benzamide]
activity on T. brucei cells (in words) [1]: inactive

Compound: O=C(c1ccc(Cl)cc1Cl)N(CCO)c1ccc(Cl)cc1 [Compound 49, 2,4-Dichloro-N-(4-chlorophenyl)-N-(2-hydroxyethyl)benzamide]
activity on T. brucei cells (in words) [1]: inactive

Compound: Cl.NCCCN(C(=O)c1ccc(Cl)cc1Cl)c1ccc(Cl)cc1 [Compound 50, N-(3-Aminopropyl)-2,4-dichloro-N-(4-chlorophenyl)benzamide]
fold reduction of potency compared to compound 2 [1]: 10 fold

Compound: CNCCN(C(=O)c1ccc(Cl)cc1Cl)c1ccc(Cl)cc1.Cl [Compound 58, 2,4-Dichloro-N-(4-chlorophenyl)-N-[2-(methylamino)ethyl] benzamide hydrochloride]
fold reduction of potency compared to compound 2 [1]: 5 fold

Compound: N#CCN(C(=O)c1ccc(Cl)cc1Cl)c1ccc(Cl)cc1 [Compound 60, 2,4-Dichloro-N-(4-chlorophenyl)-N-(cyanomethyl)benzamide]
activity on T. brucei cells (in words) [1]: inactive

Compound: Cl.O=C(c1ccc(Cl)cc1Cl)N(c1ccc(Cl)cc1)c1cccnc1 [Compound 63, 2,4-Dichloro-N-(4-chlorophenyl)-N-(pyridin-3-yl)benzamide]
activity on T. brucei cells (in words) [1]: inactive

Compound: Cl.NCCN(C(=O)c1ccccc1C(F)(F)F)c1ccc(OCc2ccc(Cl)cc2)cc1 [Compound 66, N-(2-Aminoethyl)-N-{4-[(4-chlorophenyl)methoxy]phenyl}-2-(trifluoromethyl)benzamide hydrochloride]
activity on T. brucei cells (in words) [1]: single digit nanomolar EC50 values

Compound: Cl.NCCN(C(=O)c1cccnc1C(F)(F)F)c1ccc(OCc2ccc(Cl)cc2)cc1 [Compound 68, N-(2-Aminoethyl)-N-{4-[(4-chlorophenyl)methoxy]phenyl}-2-(trifluoromethyl)pyridine-3-carboxamide hydrochloride]
fold more active than 2-chloronicotinoyl (67) ([1]; vs 67): 10 fold

Compound: CC(C)c1ccc(COc2ccc(N(CCN)C(=O)c3cccnc3Cl)cc2)cc1.Cl [Compound 72, N-(2-Aminoethyl)-2-chloro-N-(4-{[4-(propan-2-yl)phenyl]methoxy}phenyl)pyridine-3-carboxamide hydrochloride]
relapse with parasites in the blood [2]: all mice relapsed
suppression of parasitemia during treatment phase [2]: complete suppression
number of mice free of parasitemia/number of mice in the group [2, 3]: 5/5
number of mice free of parasitemia/number of mice in the group [2, 4]: 5/5
number of mice free of parasitemia/number of mice in the group [2, 5]: 4/5
number of mice free of parasitemia/number of mice in the group [2, 6]: 2/5

Compound: Cc1cc(C)cc(COc2ccc(N(CCN)C(=O)c3ccc(Cl)cc3Cl)cc2)c1.Cl [Compound 76, N-(2-Aminoethyl)-2,4-dichloro-N-{4-[(3,5-dimethylphenyl)methoxy]phenyl}benzamide hydrochloride]
relapse with parasites in the blood [2]: all mice relapsed
suppression of parasitemia during treatment phase [2]: partial suppression
number of mice free of parasitemia/number of mice in the group [2, 3]: 3/4
number of mice free of parasitemia/number of mice in the group [2, 4]: 3/4
number of mice free of parasitemia/number of mice in the group [2, 5]: 3/4
number of mice free of parasitemia/number of mice in the group [2, 7]: 3/4
number of mice free of parasitemia/number of mice in the group [2, 6]: 2/4
number of mice free of parasitemia/number of mice in the group [2, 8]: 1/4

Compound: N=C(N)c1ccc(/N=N/Nc2ccc(C(=N)N)cc2)cc1 [Diminazene, diminazene aceturate, reference compound]
number of mice free of parasitemia/number of mice in the group [2, 3]: 3/3
number of mice free of parasitemia/number of mice in the group [2, 4]: 3/3
number of mice free of parasitemia/number of mice in the group [2, 5]: 3/3
number of mice free of parasitemia/number of mice in the group [2, 7]: 3/3
number of mice free of parasitemia/number of mice in the group [2, 6]: 3/3
number of mice free of parasitemia/number of mice in the group [2, 8]: 3/3
number of mice free of parasitemia/number of mice in the group ([2]; day 41–42 post-infection, day 7–8 post-treatment): 3/3
number of mice free of parasitemia/number of mice in the group ([2]; day 43–45 post-infection, day 9–11 post-treatment): 3/3
number of mice free of parasitemia/number of mice in the group ([2]; day 46–49 post-infection, day 12–15 post-treatment): 1/3
number of mice free of parasitemia/number of mice in the group ([2]; day 50–51 post-infection, day 16–17 post-treatment): 0/3

Compound: CC1(C)OB(O)c2cc(NC(=O)c3ccc(F)cc3C(F)(F)F)ccc21 [SCYX-7158, reference compound]
cure in late-stage model (in words) ([2]; 50 mg/kg PO twice per day): cured all mice
